From patent US10174015B2, “Substituted heterocyclic derivative, preparation method and use thereof” (Xiamen University, priority 2014, dated 2019)
Like-named read-outs stand apart in the source and are kept apart here.

Key:
SNI neuropathic pain = assay: Neuropathic pain mouse model induced by spared nerve injury (SNI); assay type: in vivo, C57BL/6 mice; settings: SNI mice; for effect compared to positive control drug gabapentin: 10 mg/kg i.p. vs gabapentin 100 mg/kg, 1 h after administration
Protocol: (§1) In the Experimental example, compounds to be evaluated or compounds to be tested or test compounds used are the Compounds 1-46 prepared in the Examples according to the invention. In the Experimental example, all the agents for injection, including compounds to be evaluated or compounds to be tested or test compounds, and positive control drug, were dissolved in a mixed solvent of PEG400:Tween 80:normal saline (at a volume ratio of 5:5:90), at a concentration of 5 mg/mL.
Neuropathic pain mouse model induced by spared nerve injury (SNI) is a common animal model for studying neuropathic pain medically. The invention uses the model to evaluate the therapeutic effects of the compounds on neuropathic pain, wherein the model can represent peripheral neuropathic pain including, but not limited to post-herpetic neuralgia, pain caused by diabetic perineuropathy, neurothlipsis and exudation caused by tumor, lumbar surgery failure syndrome, neuropathic pain caused by lumbar disc protrusion, postpartum neuralgia, trigeminal neuralgia, chemotherapy-induced multiple neuropathic pain, post-radiotherapy plexopathy, and radicular neuralgia.
C57BL/6 mice (purchased from Shanghai SLAC Laboratory Animal Co., Ltd) were anesthetized by intraperitoneal injection with pentobarbital sodium (40 mg/kg), and skin from knee joint to gluteal region was subjected to skin preparation and disinfection. After the mice were fixed, the knee joint part was cut about 1 cm longitudinally with bistoury, and muscle tissues were separated by blunt dissection to expose sciatic nerve. The tibial and common peroneal nerve branches of sciatic nerve stem were cut off carefully, and the cut was then stitched up. The mice was placed in a clean observation cage. In the sham-operation group, only sciatic nerve was exposed without cutting the tibial and common peroneal nerve branches. From the day before the experiment to 24 h after the operation, the plantar edges of the mice were stimulated everyday by […] (Ugo Basile Company (Italy), Product ID: 37450), and data was collected automatically to obtain the threshold value of mice to mechanical stimulation. […] The positive control drug gabapentin was administered at a dose of 100 mg/kg. All the agents to be injected were dissolved in a mixed solvent of PEG400:Tween 80:normal saline (at a volume ratio of 5:5:90), at a concentration of 5 mg/mL. By comparing the threshold values (the acting force of when the mouse retracting the paw) at different administration time in different administration groups, the compound was evaluated for its analgesic effect on neuropathic pain.

[1] = Stability assays at acidic and basic conditions; assay type: physicochemical
Protocol: The sample containing the compound to be tested was then incubated in a constant temperature shaker at 37° C. At different time points (0 min, 10 min, 30 min, 1 h, 2 h, 4 h, 6 h, 12 h, 24 h), 50 μL sample was taken and added to 150 μL precooled methanol (containing the internal standard E8, 1 nmol/sample), wherein three parallel samples were prepared for each time point. The samples were then vertically mixed well, and transferred to a sample vial. LC-MS/MS was used to measure the peak area at different time points, Analyst® version 1.4.1. software was used to analyze chromatographic peak, and the content of the target compound was calculated based on the standard curve.

[2] = test system: inflammatory abdominal pain caused by acetic acid; assay: Abdominal inflammatory pain caused by acetic acid; assay type: in vivo, Kunming mice; settings: mice, 10 mg/kg i.p. 1 h before acetic acid; indometacin 20 mg/kg (FIG. 4)
Protocol: as §1
Typical model for studying inflammation-induced visceral pain medically was used to evaluate the therapeutic effects of compounds on inflammatory visceral pain. The model can represent general visceral pain including, but not only limited to appendicitis, gastritis, pancreatitis, prostatitis, myocarditis, interstitial cystitis, pain caused by hepatic, gall or kidney stone, irritable bowel syndrome, and chronic pelvic pain syndrome.
Experimental Kunming mice (purchased by Xiamen University Laboratory Animal Center from Shanghai SLAC Laboratory Animal Co., Ltd) were in an experimental environment with free access to food and water for 1 week. The mice were fasted for 24 h before administration. The compound to be evaluated (10 mg/kg) was administered to the mice by intraperitoneal injection at 1 h before administration of acetic acid, wherein the positive control drug indometacin was administered at a dose of 20 mg/kg, and the blank control was normal saline. Acetic acid (50 μL, acetic acid dissolved in normal saline, at a concentration of 5%) was administered to the mice by intraperitoneal injection, and the mice were then placed in the observation cage. A video camera was used to record the behavior of the mice in the following 20 min. Pain-related behavior was analyzed statistically based on torsion times of the mice in said period.

[3] = test system: headache caused by nitroglycerin; assay: Nitroglycerin-induced headache rat model; assay type: in vivo, Wistar rats; settings: rats, 10 mg/kg i.p. 1 h before nitroglycerin (FIG. 5)
Protocol: as §1
Nitroglycerin-induced headache rat model was a common model for studying inflammatory pain medically. The model was used in the invention to evaluate the therapeutic effects of the compounds on headache. The model can represent mixed pain including, but not only limited to: migraine, cluster headache, tension headache syndrome, prosopodynia, lumbodynia, shoulder pain, burning mouth syndrome, and complex regional pain syndrome.
Experimental Wistar rats with a body weight of about 250 g for each (purchased from Shanghai SLAC Laboratory Animal Co., Ltd) were in an experimental environment with free access to food and water for 1 week. The rats were fasted for 24 h before administration. The compound to be evaluated (10 mg/kg) was intraperitoneally injected to the rat at 1 h before the administration of nitroglycerin, wherein the positive control drug was indomethacin and the blank control was normal saline. Nitroglycerin (10 mg/kg, nitroglycerin dissolved in normal saline, at a concentration of 5%) was injected at epidermis of the rat neck, and the rats were then placed in the observation cage. A video camera was used to record the behavior of the rats in the following 60 min. Pain-related behavior was analyzed statistically based on the times that the rat scratched its head in said period.

[4] = 10 mg/kg i.p. (gabapentin 100 mg/kg), 4 h after administration
[5] = 10 mg/kg intraperitoneal, 1 h and 4 h after administration (FIGS. 1 and 2)
[6] = PBS pH 5.0, 37° C., read-out: Half-life pH 5.0
[7] = PBS pH 7.4, 37° C., read-out: Half-life pH 7.4

Compound | effect of inhibiting central neuropathic pain (SNI neuropathic pain; [4]) | effect compared to positive control drug gabapentin (SNI neuropathic pain) | analgesic effect (SNI neuropathic pain; 10 mg/kg i.p., 10 h after administration (FIG. 3)) | effect of inhibiting central neuropathic pain (SNI neuropathic pain; [5]) | half-life at 1 μM [1, 6] [h] | half-life at 1 μM [1, 7] [h] | effect of inhibiting abdominal inflammatory pain [2] | effect of inhibiting nitroglycerin-induced headache [3]
O=C(CCCCCc1ccccc1)N1CCOC1=O [Compound 2, Phenylhexanoyl Oxazolidinone] | retained a relatively strong effect of inhibiting central neuropathic pain | not as effective as the control drug | still had a sustained analgesic effect | significant effects of inhibiting central neuropathic pain | > 24 | > 24 | significant effects of inhibiting abdominal inflammatory pain | significant effects of inhibiting nitroglycerin-induced headache in rats
O=C(CCCCCc1cccc(Cl)c1)N1CCOC1=O [Compound 9, 3-Chlorophenylhexanoyl Oxazolidinone] | retained a relatively strong effect of inhibiting central neuropathic pain | not as effective as the control drug |  | significant effects of inhibiting central neuropathic pain | > 24 | > 24 | significant effects of inhibiting abdominal inflammatory pain | significant effects of inhibiting nitroglycerin-induced headache in rats
